In data set [1] the test system is H4IIE rat hepatoma cells. The data set can be described thus: Toxicity in H4IIE rat hepatoma cells. Format: cell-based.
In data set [2] the test system is QR ARE-CAT construct, HepG2 cells. The data set can be described thus: CAT expression in HepG2 cells transfected with QR ARE-CAT. Format: cell-based, human cells; rat QR gene. The note with it: 10 μM, 48 h; p<0.0001; listed as 4'-BF. How it is done: Transcient Transfection Gene Expression Assay. Cultured HepG2 human hepatoma cells were transfected with three plasmid constructs (PDTD-1697CAT, XRE-CAT, ARE-CAT) containing various portions of the 5'-region of the QR gene fused to the CAT gene using the calcium phosphate precipitation method (J. Sambrook et al., Molecular cloning: A Laboratory Handbook, Ed. Chris Nolan, CHS Laboratory Press, 1989). After 4 hours of transfection, the cells were treated with 10% glycerol for 3 minutes and rinsed with PBS and switched to MEM, containing 100 units/ml penicillin G sodium, 100 units/ml streptomycin sulfate, nonessential amino acids, and 1 mM sodium pyruvate (Life Technologies Inc.) supplemented with 10% fetal bovine serum for 12-16 hours recovery. Then, test agents were added to the cells. After 48 hours of treatment with the test agents, cells were harvested with lysis buffer (Boehringer Mannheim Biochemical) and CAT protein expressions were assessed using a CAT ELISA kit (Boehringer Mannheim Biochemical). CAT enzyme expression was normalized for the protein content of each sample. All data were expressed as mean +/- SD. Means were compared using Student's t test with n=4.
This was further investigated in transient transfection experiments wherein human hepatoma cells were transfected with DNA constructs containing various portions of the 5' upstream promoter region of the QR gene linked to the CAT reporter gene by using the calcium phosphate precipitation method. Construct pDTD-1097CAT contains elements of the rat QR gene connected to the CAT construct gene. […]
In particular, FIG. 1 illustrates quantitation of CAT expression in HepG2 cells transfected with QR-CAT constructs. […] CAT expression (ng CAT/mg protein) was determined using a CAT ELISA, and the ratio of CAT expression between treated and control cells was calculated (ratio=treated/control).

In data set [3] the target is T1, cytochrome P4501A1 (Rattus norvegicus, UniProt P00185).
T1 sequence (P00185 1-524): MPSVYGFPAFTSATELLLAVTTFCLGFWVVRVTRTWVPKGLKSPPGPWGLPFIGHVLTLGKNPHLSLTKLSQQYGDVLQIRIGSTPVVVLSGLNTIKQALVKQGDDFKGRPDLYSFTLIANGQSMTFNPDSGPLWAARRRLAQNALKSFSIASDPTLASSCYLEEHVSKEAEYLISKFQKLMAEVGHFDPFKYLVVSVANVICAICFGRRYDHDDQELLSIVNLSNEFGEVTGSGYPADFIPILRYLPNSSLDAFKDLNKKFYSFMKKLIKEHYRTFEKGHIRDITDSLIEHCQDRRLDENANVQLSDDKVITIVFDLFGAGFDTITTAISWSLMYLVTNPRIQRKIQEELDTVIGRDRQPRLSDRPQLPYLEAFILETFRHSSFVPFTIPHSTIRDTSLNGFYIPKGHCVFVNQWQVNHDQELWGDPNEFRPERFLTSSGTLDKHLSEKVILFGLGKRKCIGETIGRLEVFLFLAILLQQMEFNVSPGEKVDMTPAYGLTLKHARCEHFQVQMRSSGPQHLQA
The data set can be described thus: biochemical. How it is done:
Inhibition of DMBA-induced Cytochrome P4501A1 Activity. Female Sprague Dawley rats (43 days of age) were treated with DMBA (i.g.), and liver microsomes were isolated through differential centrifugation. Cytochrome P4501A1 activity was monitored by assessing EROD activity. Briefly, 200 μl of microsomal protein (2 mg/ml) were added to a reaction mixture containing 640 μl of 0.05 M Tris-HCl buffer (pH 7.5), 100 μl of BSA (10 mg/ml in Tris buffer), 20 μl of 0.25 M MgCl2, 40 μl of cofactor solution (0.3282 g of NADP and 1.417 g of glucose 6-phosphate in 40 ml of 1.15% KCl), 2.5 units of glucose 6-phosphate dehydrogenase, 10 μl of substrate (1 mg of ethoxyresorufin in 10 ml of methanol) and 10 μl of various concentrations of 4'-BF in DMSO (α-naphthoflavone as positive control; DMSO as negative control). After incubating at 37° C. for 4 min, the reactions were terminated by the addition of 2 ml of methanol. Samples were then centrifuged for 20 min at 2,000×g. and 200 μl of the supernatant fractions were transferred to 96-well plates and read on a spectrofluorimeter (500 nm excitation and 585 nm emission). Assays were conducted in triplicate and the percent of inhibition was calculated as: [1-(sample A-blank)/(DMSO A-blank)]×100.

The record followed here is US6046231A, “Use of 4'-bromoflavone in a cancer chemopreventative composition and method” (The Board of Trustees of the University of Illinois, priority 1999, dated 2000).

pIC50: −log10 of the molar value.

Broadly, the pIC50 is the IC50 on a negative log10 scale, so that one unit is a factor of ten. For `O=c1cc(-c2ccc(Br)cc2)oc2ccccc12` [4'-Bromoflavone], the “toxicity in H4IIE cells” value in data set [1] is listed as “no observed toxicity”. Also, the “CAT expression, QR ARE-CAT” value in data set [2] was “significantly (P<0.0001, students t test with n=4) induced”. The pIC50 in data set [3] is 6.07.
